Results on three molecules are retold here after patent publication US5981530A, “Piperazine derivative” (Senju Pharmaceutical Co., Ltd., priority 1995, dated 1999).

Where a name gives a salt, the structure may show the parent alone.

For the assay, the system named is rat palpebral PCA reaction. Description: Passive cutaneous anaphylactic (PCA) reaction of the rat palpebra. Particulars: 100 mg/5 ml/kg oral, 60 min prior to induction of PCA; for Degree of Inhibition (%): vs negative control. Format: in vivo, rat (male Wistar). How it is done: Effect of the compound of the invention on the passive cutaneous anaphylactic (PCA) reaction of the rat palpebra
The effect of the compound of the invention on rat palpebral PCA reaction was investigated.
Male Wistar rats weighing about 120 g were purchased from Japan SLC for the experiment.
Using a microsyringe, 25 μl of antiserum (32-fold dilution) was injected beneath the palpebral conjunctiva of the right eye of rats under pentobarbital anesthesia. Forty-eight (48) hours after injection of antiserum, a mixture of 2% chicken egg albumin and 1% Evans blue, 5 ml/kg, was administered into the tail vein to induce PCA reaction. Thirty (30) minutes after induction, the rat was sacrificed and the stained portion of the palpebral conjunctiva of the right eye was excised. The dye was extracted into 5 ml of formamide, and the amount of the dye was determined at 625 nm.
The test substance, 100 mg/5 ml/kg, was administered orally 60 minutes prior to induction of PCA reaction.
As a negative control, 5 ml/kg of 0.5% carboxymethylcellulose (CMC) was administered orally. As a positive control, 100 mg/5 ml/kg of diphenhydramine hydrochloride, a commercial antihistaminic, was administered orally.

The mark [1] stands for this setting: Table 1, mean ± SD (n = 5), negative control 0.662 ± 0.112, *1 p < 0.05, *2 p < 0.001.
Where [2] appears, read: Table 1, n = 5, *1 p < 0.05, *2 p < 0.001.

Take `CN(C)CCOC(c1ccccc1)c1ccccc1` [Diphenhydramine HCl, diphenhydramine hydrochloride, reference compound]: the “Absorbance (extracted dye, 625 nm)” value under setting [1] worked out at 0.413 ± 0.126. Besides, under setting [2], the “Degree of Inhibition (%)” value is 37.6%.

On to `COc1ccc(OCC(O)CN2CCN(c3ccccc3C(=O)O)CC2)c(C(C)(C)C)c1` (stereo not drawn) [Example 1, 3-[4-(2-Carboxyphenyl)piperazinyl]-1-(2-tert-butyl-4-methoxyphenoxy)propan-2-ol], for which, under setting [1], the “Absorbance (extracted dye, 625 nm)” value worked out at 0.299 ± 0.056. Besides, under setting [2], the “Degree of Inhibition (%)” value is reported as 54.8%.

Turning to `O=C(O)c1ccccc1N1CCN(CC(O)COc2cccc3[nH]ccc23)CC1` (stereo not drawn) [Example 5, 3-[4-(2-Carboxyphenyl)piperazinyl]-1-(1H-indol-4-yloxy)propan-2-ol], the “Absorbance (extracted dye, 625 nm)” value (Table 2, mean ± SD (n = 6), negative control 0.486 ± 0.093, *1 p < 0.001) amounted to 0.276 ± 0.048. For the same molecule, where the note is “Table 2, n = 6, *1 p < 0.001”, the “Degree of Inhibition (%)” value is on record as 43.2%.
